Measured values taken from PMC11299021, “Machine learning-assisted substrate binding pocket engineering based on structural information” (Briefings in Bioinformatics, 2024).

Target: T1, KvAP (Klebsiella variicola acid phosphatase) (Klebsiella variicola, UniProt B5XS64)
T1 construct: gene KPK_3238; synthetic gene in pET-22b (NdeI/BlpI), E. coli BL21(DE3); His-Trap and Superdex 75 purified
T1 sequence (B5XS64 20-248): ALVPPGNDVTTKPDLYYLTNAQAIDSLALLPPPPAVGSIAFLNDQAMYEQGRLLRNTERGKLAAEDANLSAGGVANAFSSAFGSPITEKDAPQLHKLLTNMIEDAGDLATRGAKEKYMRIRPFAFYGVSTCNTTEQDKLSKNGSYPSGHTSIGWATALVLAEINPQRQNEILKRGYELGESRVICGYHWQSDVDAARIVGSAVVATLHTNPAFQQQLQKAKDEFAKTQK
Experiment: p-nitrophenol release at […] nm (specific activity)
Format: biochemical
Conditions: 200 mM p-NPP disodium salt, 50 mM acetate pH 5.0, 37 °C, 20 min

Compound: O=[N+]([O-])c1ccc(OP(=O)(O)O)cc1 [p-NPP]
- p-nitrophenol release at 405 nm (specific activity): The purified enzyme was used for measuring its activity against nitrophenyl phosphate (p-NPP)
